PubChem BioAssay (NCI)
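How tested: cells in 96-well plates exposed to compound for 48 hours at five concentrations. GI50: concentration for 50% inhibition of growth. TGI: concentration producing complete growth inhibition.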

Legend:
Test in all cases: growth of human tumour cells (NCI), 48 h
NCI-H226 lung = system: NCI-H226 lung
HL-60(TB) leukemia = system: HL-60(TB) leukemia
OVCAR-3 ovarian = system: OVCAR-3 ovarian
SF-295 CNS = system: SF-295 CNS
HCC-2998 colon = system: HCC-2998 colon
NCI-H460 lung = system: NCI-H460 lung
SNB-19 CNS = system: SNB-19 CNS
SNB-75 CNS = system: SNB-75 CNS
NCI-H522 lung = system: NCI-H522 lung
OVCAR-4 ovarian = system: OVCAR-4 ovarian
UACC-62 melanoma = system: UACC-62 melanoma
MCF7 breast = system: MCF7 breast
OVCAR-5 ovarian = system: OVCAR-5 ovarian
M14 melanoma = system: M14 melanoma
KM12 colon = system: KM12 colon
HOP-62 NSCLC = system: HOP-62 NSCLC
CAKI-1 renal = system: CAKI-1 renal
UACC-257 melanoma = system: UACC-257 melanoma
TK-10 renal = system: TK-10 renal
HCT-15 colon = system: HCT-15 colon
SW-620 colon = system: SW-620 colon
HCT-116 colon = system: HCT-116 colon
BT-549 breast = system: BT-549 breast
NCI-H23 lung = system: NCI-H23 lung
LOX IMVI melanoma = system: LOX IMVI melanoma
MALME-3M melanoma = system: MALME-3M melanoma
SR leukemia = system: SR leukemia
K-562 leukemia = system: K-562 leukemia
SF-539 CNS = system: SF-539 CNS
OVCAR-8 ovarian = system: OVCAR-8 ovarian
ACHN renal = system: ACHN renal
A549 NSCLC = system: A549 NSCLC
RPMI-8226 leukemia = system: RPMI-8226 leukemia
RXF 393 renal = system: RXF 393 renal
IGROV1 ovarian = system: IGROV1 ovarian
U251 CNS = system: U251 CNS
HS 578T breast = system: HS 578T breast
PC-3 prostate = system: PC-3 prostate
SK-MEL-5 melanoma = system: SK-MEL-5 melanoma
HT29 colon = system: HT29 colon
SN12C renal = system: SN12C renal
T-47D breast = system: T-47D breast
UO-31 renal = system: UO-31 renal
COLO 205 colon = system: COLO 205 colon
SK-MEL-28 melanoma = system: SK-MEL-28 melanoma
SF-268 CNS = system: SF-268 CNS
DU-145 prostate = system: DU-145 prostate
SK-MEL-2 melanoma = system: SK-MEL-2 melanoma
MDA-MB-435 = system: MDA-MB-435
NCI/ADR-RES ovarian = system: NCI/ADR-RES ovarian
SK-OV-3 ovarian = system: SK-OV-3 ovarian
CCRF-CEM leukemia = system: CCRF-CEM leukemia
HOP-92 NSCLC = system: HOP-92 NSCLC
MOLT-4 leukemia = system: MOLT-4 leukemia
786-0 renal = system: 786-0 renal
A498 renal = system: A498 renal

Work on `Cc1cc(C)c2c(n1)sc1c(Nc3ccc(Cl)cc3)ncnc12` yielded a GI50 (NCI-H226 lung) of 33.3 nM, a TGI (NCI-H226 lung) of 5670 nM and a GI50 (HL-60(TB) leukemia) of less than 10 nM. The GI50 (OVCAR-3 ovarian) was 2390 nM, the TGI (OVCAR-3 ovarian) was greater than 100000 nM and the GI50 (SF-295 CNS) was 20.9 nM. The TGI (SF-295 CNS) was greater than 100000 nM, the GI50 (HCC-2998 colon) was 7400 nM and the TGI (HCC-2998 colon) was greater than 100000 nM. The GI50 (NCI-H460 lung) was less than 10 nM, the TGI (NCI-H460 lung) was greater than 100000 nM and the GI50 (SNB-19 CNS) was less than 10 nM. For the same molecule, the TGI (SNB-19 CNS) was greater than 100000 nM, the GI50 (SNB-75 CNS) was 17 nM and the TGI (SNB-75 CNS) was greater than 26400 nM. The GI50 (NCI-H522 lung) was less than 10 nM, the TGI (NCI-H522 lung) was greater than 100000 nM and the GI50 (OVCAR-4 ovarian) was greater than 100000 nM. For the same molecule, the TGI (OVCAR-4 ovarian) was greater than 100000 nM, the GI50 (UACC-62 melanoma) was less than 10 nM and the GI50 (MCF7 breast) was less than 10 nM. It also gave a TGI (MCF7 breast) greater than 100000 nM, a GI50 (OVCAR-5 ovarian) of less than 12.5 nM and a TGI (OVCAR-5 ovarian) greater than 100000 nM. For the same molecule, the GI50 (M14 melanoma) was less than 10 nM, the GI50 (KM12 colon) was 139 nM and the TGI (KM12 colon) was greater than 100000 nM. It also gave a GI50 (HOP-62 NSCLC) of less than 10 nM, a GI50 (CAKI-1 renal) of less than 10 nM and a TGI (CAKI-1 renal) greater than 27600 nM. It also gave a GI50 (UACC-257 melanoma) of 107 nM, a TGI (UACC-257 melanoma) greater than 100000 nM and a GI50 (TK-10 renal) greater than 100000 nM. For the same molecule, the TGI (TK-10 renal) was greater than 100000 nM, the GI50 (HCT-15 colon) was less than 10 nM and the TGI (HCT-15 colon) was greater than 100000 nM. For the same molecule, the GI50 (SW-620 colon) was less than 10 nM, the TGI (SW-620 colon) was greater than 100000 nM and the GI50 (HCT-116 colon) was less than 10 nM. The TGI (HCT-116 colon) was greater than 100000 nM, the GI50 (BT-549 breast) was less than 16.1 nM and the TGI (BT-549 breast) was greater than 100000 nM. For the same molecule, the GI50 (NCI-H23 lung) was less than 10 nM, the TGI (NCI-H23 lung) was greater than 100000 nM and the GI50 (LOX IMVI melanoma) was less than 10 nM. For the same molecule, the TGI (LOX IMVI melanoma) was greater than 100000 nM, the GI50 (MALME-3M melanoma) was 19300 nM and the TGI (MALME-3M melanoma) was greater than 100000 nM. For the same molecule, the GI50 (SR leukemia) was less than 10 nM, the TGI (SR leukemia) was 38600 nM and the GI50 (K-562 leukemia) was 15.4 nM. It also gave a TGI (K-562 leukemia) greater than 100000 nM, a GI50 (SF-539 CNS) of less than 10 nM and a TGI (SF-539 CNS) of 88.2 nM. The GI50 (OVCAR-8 ovarian) was less than 10 nM, the TGI (OVCAR-8 ovarian) was greater than 100000 nM and the GI50 (ACHN renal) was less than 10 nM. The TGI (ACHN renal) was greater than 51200 nM, the GI50 (A549 NSCLC) was less than 10 nM and the TGI (A549 NSCLC) was greater than 100000 nM. The GI50 (RPMI-8226 leukemia) was 19.7 nM, the TGI (RPMI-8226 leukemia) was greater than 100000 nM and the GI50 (RXF 393 renal) was 19.5 nM. For the same molecule, the TGI (RXF 393 renal) was 89.8 nM, the GI50 (IGROV1 ovarian) was greater than 100000 nM and the TGI (IGROV1 ovarian) was greater than 100000 nM. For the same molecule, the GI50 (U251 CNS) was less than 10 nM, the TGI (U251 CNS) was greater than 100000 nM and the GI50 (HS 578T breast) was greater than 100000 nM. For the same molecule, the TGI (HS 578T breast) was greater than 100000 nM, the GI50 (PC-3 prostate) was 199 nM and the TGI (PC-3 prostate) was greater than 100000 nM. It also gave a GI50 (SK-MEL-5 melanoma) of less than 14.1 nM, a TGI (SK-MEL-5 melanoma) greater than 100000 nM and a GI50 (HT29 colon) of less than 15.2 nM. It also gave a TGI (HT29 colon) greater than 100000 nM, a GI50 (SN12C renal) of 31.2 nM and a TGI (SN12C renal) greater than 100000 nM. The GI50 (T-47D breast) was 29.9 nM, the TGI (T-47D breast) was greater than 100000 nM and the GI50 (UO-31 renal) was less than 10 nM. It also gave a GI50 (COLO 205 colon) of 31.4 nM, a TGI (COLO 205 colon) greater than 100000 nM and a GI50 (SK-MEL-28 melanoma) of 4400 nM. For the same molecule, the TGI (SK-MEL-28 melanoma) was greater than 100000 nM, the GI50 (SF-268 CNS) was less than 10 nM and the TGI (SF-268 CNS) was greater than 100000 nM. It also gave a GI50 (DU-145 prostate) of less than 10 nM, a TGI (DU-145 prostate) greater than 100000 nM and a GI50 (SK-MEL-2 melanoma) greater than 100000 nM. For the same molecule, the TGI (SK-MEL-2 melanoma) was greater than 100000 nM, the GI50 (MDA-MB-435) was less than 10 nM and the TGI (MDA-MB-435) was greater than 100000 nM. The GI50 (NCI/ADR-RES ovarian) was less than 10 nM, the TGI (NCI/ADR-RES ovarian) was greater than 100000 nM and the GI50 (SK-OV-3 ovarian) was 41.8 nM. It also gave a TGI (SK-OV-3 ovarian) greater than 100000 nM, a GI50 (CCRF-CEM leukemia) of less than 10 nM and a TGI (CCRF-CEM leukemia) greater than 100000 nM. The GI50 (HOP-92 NSCLC) was 28.8 nM, the GI50 (MOLT-4 leukemia) was less than 10 nM and the TGI (MOLT-4 leukemia) was greater than 100000 nM. The GI50 (786-0 renal) was less than 10 nM, the GI50 (A498 renal) was less than 13.3 nM and the TGI (A498 renal) was 491 nM.
